By IC50 is commonly meant the concentration needed to halve the response being measured. What is called clearance is the rate of elimination divided by the concentration. Read a low clearance as inefficient removal. In general, Cmax refers to the maximum level reached in the sampled fluid or tissue.

In data set [1] the target is T1, Succinate receptor 1 (Homo sapiens, UniProt Q9BXA5).
T1 sequence (Q9BXA5 whole entry): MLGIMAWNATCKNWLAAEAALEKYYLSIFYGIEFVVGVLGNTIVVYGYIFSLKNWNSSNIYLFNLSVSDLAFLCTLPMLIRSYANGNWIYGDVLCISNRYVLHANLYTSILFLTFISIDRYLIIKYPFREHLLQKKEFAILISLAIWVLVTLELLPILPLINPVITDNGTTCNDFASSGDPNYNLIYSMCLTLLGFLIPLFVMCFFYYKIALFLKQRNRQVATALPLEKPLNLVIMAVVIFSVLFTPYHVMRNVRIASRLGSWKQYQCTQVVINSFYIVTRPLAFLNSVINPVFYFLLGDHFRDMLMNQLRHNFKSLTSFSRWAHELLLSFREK
In words: Antagonist activity at human GPR91 receptor expressed in CHO-K1 cells co-expressing Galpha and Gqi5 G-protein assessed as inhibition of succinate-induced increase in intracellular calcium level by FLIPR assay. The format is functional, cell-based. (In general: Calcium flux is commonly read through the fluorescence of an indicator in the cells.)

Data set [2] deals with Liver microsomes. Description: Intrinsic clearance in rat liver microsomes preincubated for 5 mins before addition of NADPH measured after 30 mins by LC/MS/MS analysis. The format is ADME, Microsome. The note with it: 0.5 h.
For data set [3], the target named is T2, Succinate receptor 1 (Homo sapiens) (UniProt Q9BXA5).
T2 sequence (whole entry): T1 sequence (Q9BXA5 whole entry)
In words: Antagonist activity at human GPR91 receptor expressed in CHO-K1 cells co-expressing Galpha and Gqi5 G-protein assessed as inhibition of succinate-induced increase in intracellular calcium level at 10 uM by FLIPR assay. Type of data set: functional, cell-based.

The nature of data set [4]: Plasma clearance in Wistar rat at 5 mg/kg, iv. Also noted: dose 5 mg/kg, route intravenous. Type of data set: ADME, organism-based.
Data set [5] deals with T3, Succinate receptor 1 (Rattus norvegicus, UniProt Q6IYF9).
T3 sequence (Q6IYF9 whole entry): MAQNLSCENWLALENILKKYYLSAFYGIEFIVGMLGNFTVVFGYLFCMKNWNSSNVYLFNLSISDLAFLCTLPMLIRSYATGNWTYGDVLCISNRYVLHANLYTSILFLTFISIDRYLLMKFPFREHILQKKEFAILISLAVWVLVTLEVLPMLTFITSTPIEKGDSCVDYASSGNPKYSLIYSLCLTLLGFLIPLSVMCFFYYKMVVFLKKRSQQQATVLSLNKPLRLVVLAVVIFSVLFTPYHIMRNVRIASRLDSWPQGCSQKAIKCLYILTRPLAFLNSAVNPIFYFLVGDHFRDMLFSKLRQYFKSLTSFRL
In words: Antagonist activity at rat GPR91 receptor expressed in CHO-K1 cells co-expressing Galpha and Gqi5 G-protein assessed as inhibition of succinate-induced increase in intracellular calcium level by FLIPR assay. The format is functional, cell-based.

Data set [6] can be described thus: Terminal half life in Wistar rat at 5 mg/kg, iv. Conditions: in vivo, read-out: beta t1/2 (converted). Also noted: dose 5 mg/kg, route intravenous. The format is ADME, organism-based.
Data set [7] is described as follows: Volume of distribution at steady state in Wistar rat at 5 mg/kg, iv. Type of data set: ADME, organism-based. Set-up: dose 5 mg/kg, route intravenous. The note with it: in vivo, read-out: Vdss.
A short description of data set [8]: Cmax in Wistar rat at 5 mg/kg, iv by LC/MS/MS analysis. Type of data set: ADME, organism-based. Also noted: dose 5 mg/kg, route intravenous. Conditions: in vivo.
Data set [9] concerns the target 2-oxoglutarate receptor 1 (Homo sapiens, UniProt Q96P68). In words: Antagonist activity at human GPR99 receptor expressed in CHO-K1 cells co-expressing Galpha and Gqi5 G-protein assessed as inhibition of succinate-induced increase in intracellular calcium level at by FLIPR assay. Type of data set: functional, cell-based.

Active and inactive are the calls of the source. No cut-off for these calls is given here.

Chain of 2-oxoglutarate receptor 1 (Q96P68 whole entry, looked up): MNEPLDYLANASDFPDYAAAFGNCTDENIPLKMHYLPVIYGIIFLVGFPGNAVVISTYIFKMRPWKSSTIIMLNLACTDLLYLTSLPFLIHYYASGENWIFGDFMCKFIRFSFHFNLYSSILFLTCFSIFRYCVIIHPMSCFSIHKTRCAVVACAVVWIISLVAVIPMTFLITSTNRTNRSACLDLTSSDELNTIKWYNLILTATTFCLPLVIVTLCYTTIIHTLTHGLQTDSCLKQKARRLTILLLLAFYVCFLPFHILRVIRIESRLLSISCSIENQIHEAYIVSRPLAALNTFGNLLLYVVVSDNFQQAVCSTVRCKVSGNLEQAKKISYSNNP

On to `Fc1ccc(-c2ccc(-c3nnc(CCCc4ccc5cccnc5n4)o3)cc2)cc1Cl`, for which the IC50 in [1] was determined as 100 nM. In data set [2], this compound showed an Intrinsic clearance of 0.2 nmol/min/mg.
For `O=C(CCCc1ccc2cccnc2n1)NCc1ccc(-c2cccc(F)c2C(=O)O)cc1F`, in [3], the inhibition result is “inactive”. The Intrinsic clearance in [2] was 0.08 nmol/min/mg.
With `O=C(CCCc1ccc2cccnc2n1)NCc1ccc(-c2ccccc2)cc1`, the IC50 in data set [1] was 1000 nM. This compound yielded an Intrinsic clearance in [2] of 0.17 nmol/min/mg.
Regarding `FC(F)(F)Oc1ccc(-c2nnc(CCCCc3ccc4cccnc4n3)o2)cc1`, the IC50 in data set [1] amounted to 3000 nM.
Same read-out and setting: next, `Fc1ccc(-c2nnc(CCCCc3ccc4cccnc4n3)o2)cc1OC(F)(F)F`: 4000 nM.
As to `Clc1cccc(-c2ccc(-c3nnc(CCCc4ccc5cccnc5n4)o3)cc2)c1`, the clearance in data set [4] was determined as 51 mL/min/kg. Also, the concentration for half-maximal inhibition (IC50) in [5] turned out to be 67 nM; in data set [1] it was 40 nM; in data set [9], 5000 nM. Further, the half-life in [6] is 54 min. In addition, in data set [2], the Intrinsic clearance is 0.3 nmol/min/mg. Further, in data set [7], the Vd was 1.9 L/kg. The Cmax in data set [8] was found to be 9.3 µM.
On to `O=C(CCCc1ccc2cccnc2n1)NCc1ccc(-c2cccc(CO)c2)cc1`, for which, in data set [3], the inhibition entry was “inactive”. The Intrinsic clearance in data set [2] amounted to 0.1 nmol/min/mg.
Take `C[C@H](NC(=O)C(C)(C)c1ccc(-c2ccc3cccnc3n2)cc1)c1ccc(-c2ccc(F)c(C(F)(F)F)c2)cc1`: the IC50 in [1] came out at 14 nM. This compound had an Intrinsic clearance in data set [2] of 0.25 nmol/min/mg.
As to `CS(=O)(=O)c1cccc(-c2ccc(CNC(=O)CCCc3ccc4cccnc4n3)cc2)c1`, the inhibition entry in [3] is “inactive”. Also, in data set [2], the Intrinsic clearance is on record as 0.1 nmol/min/mg.
For the compound `O=C(CCCc1ccc2cccnc2n1)NCc1csc(-c2cccc(Cl)c2)n1`, the IC50 in data set [1] was determined as 700 nM. This compound returned an Intrinsic clearance in data set [2] of 0.4 nmol/min/mg.
On to `O=C(Cc1ccc(-c2ccc3cccnc3n2)cc1)NCc1ccc(-c2ccc(F)c(Cl)c2)cc1`, for which the IC50 in data set [1] is 31 nM. The Intrinsic clearance in [2] is on record as 0.84 nmol/min/mg.
The corresponding values for `O=C(CCCc1ccc2cccnc2n1)NCc1nc(-c2cccc(Cl)c2)cs1` are 300 nM and 0.18 nmol/min/mg.
With `Clc1cccc(-c2ccc(-c3nnc(CCCc4ccc5cccnc5n4)s3)cc2)c1`, the IC50 in data set [1] was found to be 3000 nM.
`O=C(O)Cc1cccc(-c2ccc(CNC(=O)CCCc3ccc4cccnc4n3)cc2)c1`: in [3], the inhibition entry was “inactive”.
Turning to `CC(NC(=O)CCCc1ccc2cccnc2n1)c1ccc(-c2cccc(C(F)(F)F)c2)cc1` (configuration not stated), the IC50 in data set [1] was 16 nM. This compound also came in with an Intrinsic clearance in [2] of 0.25 nmol/min/mg.
For `O=C(CCCc1ccc2cccnc2n1)NCc1cc(-c2ccc(F)c(Cl)c2)no1`, the IC50 in [1] was 90 nM. In data set [2], the Intrinsic clearance is given as 0.11 nmol/min/mg.
As to `NC(=O)c1cccc(-c2ccc(CNC(=O)CCCc3ccc4cccnc4n3)cc2)c1`, the inhibition result in [3] was “inactive”. This compound returned an Intrinsic clearance in data set [2] of 0.04 nmol/min/mg.
For the compound `C[C@H](NC(=O)C(F)(F)c1ccc(-c2ccc3cccnc3n2)cc1)c1ccc(-c2ccc(F)c(C(F)(F)F)c2)cc1`, the IC50 in [1] worked out at 19 nM. This compound also came in with an Intrinsic clearance in data set [2] of 0.14 nmol/min/mg.
On the same counts, the results for `O=C(CCCc1ccc2cccnc2n1)NCc1cnc(-c2ccc(F)c(C(F)(F)F)c2)nc1` are 49 nM and 0.2 nmol/min/mg.
On the same counts, the results for `FC(F)(F)c1ccc(-c2nnc(CCCCc3ccc4cccnc4n3)o2)cc1` are 3000 nM and 0.07 nmol/min/mg.
The corresponding values for `C[C@H](NC(=O)C(O)(c1ccc(-c2ccc3cccnc3n2)cc1)C(F)(F)F)c1ccc(-c2ccc(F)c(C(F)(F)F)c2)cc1` (some centres not stated) are 16 nM and 0.17 nmol/min/mg.
Take `NC(C(=O)NCc1ccc(-c2ccc(F)c(C(F)(F)F)c2)cc1)c1ccc(-c2ccc3cccnc3n2)cc1` (configuration not stated): the half-inhibitory concentration (IC50) in [1] was determined as 330 nM. In data set [2], this compound showed an Intrinsic clearance of 0.15 nmol/min/mg.
`C[C@H](NC(=O)C(O)c1ccc(-c2ccc3cccnc3n2)cc1)c1ccc(-c2ccc(F)c(C(F)(F)F)c2)cc1` (some centres not stated): the IC50 in [1] came to 18 nM. The compound further displayed an Intrinsic clearance in data set [2] of 0.2 nmol/min/mg.
Take `FC(F)(F)c1cccc(-c2ccc(-c3nnc(CCCc4ccc5cccnc5n4)o3)cc2)c1`: the IC50 in [1] was 200 nM. Also, the Intrinsic clearance in data set [2] stood at 0.3 nmol/min/mg.
On to `O=C(NCc1ccc(-c2ccc(F)c(C(F)(F)F)c2)cc1)C(O)(c1ccc(-c2ccc3cccnc3n2)cc1)C(F)(F)F` (configuration not stated), for which the IC50 in data set [1] was 34 nM. In data set [2], this compound had an Intrinsic clearance of 0.2 nmol/min/mg.
The corresponding values for `O=C(CCCc1ccc2cccnc2n1)NCc1ccc(-c2cccc(C(F)(F)F)c2)cc1F` are 41 nM and 0.34 nmol/min/mg.
As to `N#Cc1cccc(-c2ccc(CNC(=O)CCCc3ccc4cccnc4n3)cc2)c1`, in data set [3], the inhibition entry was “inactive”. This compound gave an Intrinsic clearance in [2] of 0.1 nmol/min/mg.
In the case of `O=C(CCCc1ccc2cccnc2n1)NCc1ccc(-c2cccc(C(=O)O)c2)cc1`, in [3], the inhibition entry is “inactive”. For the same compound, the Intrinsic clearance in data set [2] is on record as 0.03 nmol/min/mg.
As to `CC(=O)Nc1cccc(-c2ccc(CNC(=O)CCCc3ccc4cccnc4n3)cc2)c1`, in [3], the inhibition result was “inactive”.
For `O=C(CCCc1ccc2cccnc2n1)NCc1cnn(-c2ccc(F)c(C(F)(F)F)c2)c1`, in [1], the IC50 turned out to be 210 nM. The Intrinsic clearance in data set [2] was determined as 0.18 nmol/min/mg.
With `O=C(CCCc1ccc2cccnc2n1)NCc1nnc(-c2ccc(F)c(C(F)(F)F)c2)s1`, the IC50 in data set [1] amounted to 270 nM.
As for `Fc1ccc(-c2nnc(CCCCc3ccc4cccnc4n3)o2)cc1C(F)(F)F`, the IC50 in [1] was 2000 nM. In data set [2], this compound yielded an Intrinsic clearance of 0.16 nmol/min/mg.
On to `O=C(CCCc1ccc2cccnc2n1)NCc1ccc(-c2ccc(F)c(C(F)(F)F)c2)nn1`, for which, in data set [1], the IC50 came out at 720 nM.
For `O=C(CCCc1ccc2cccnc2n1)NCc1ccc(-c2ccc(F)c(C(F)(F)F)c2)cc1`, in [1], the IC50 is 22 nM. Moreover, the Intrinsic clearance in [2] is recorded as 0.1 nmol/min/mg.
The corresponding values for `CC(C)(C(=O)NCc1ccc(-c2ccc(F)c(C(F)(F)F)c2)cc1)c1ccc(-c2ccc3cccnc3n2)cc1` are 17 nM and 0.28 nmol/min/mg.
For `Clc1ccc(-c2nnc(CCCCc3ccc4cccnc4n3)o2)cc1`, the IC50 in data set [1] was > 3000 nM.
As to `O=C(CCCc1ccc2cccnc2n1)NCc1ccc(-c2ccc(F)c(Cl)c2)cc1`, the IC50 in data set [1] is 38 nM. The Intrinsic clearance in data set [2] amounted to 0.2 nmol/min/mg.
For `Fc1ccc(-c2ccc(-c3nnc(CCCc4ccc5cccnc5n4)[nH]3)cc2)cc1Cl`, the IC50 in data set [1] came to 1000 nM. In data set [2], this compound gave an Intrinsic clearance of 0.14 nmol/min/mg.
On the same counts, the results for `COc1cccc(-c2ccc(CNC(=O)CCCc3ccc4cccnc4n3)cc2)c1` are 1000 nM and 0.6 nmol/min/mg.
The corresponding values for `O=C(CCCc1ccc2cccnc2n1)NCc1ccc(-c2cccc(OC(F)(F)F)c2)cc1` are 500 nM and 0.2 nmol/min/mg.
In the case of `CCOC(=O)c1cccc(-c2ccc(CNC(=O)CCCc3ccc4cccnc4n3)cc2)c1`, the inhibition result in data set [3] is “inactive”.
In the case of `O=C(CCCc1ccc2cccnc2n1)NCc1nnc(-c2ccc(F)c(C(F)(F)F)c2)o1`, the IC50 in [1] is 1000 nM.
The same measure, in the same setting: next, `O=C(CCCc1ccc2cccnc2n1)NCc1ncc(-c2ccc(F)c(C(F)(F)F)c2)cn1`: 200 nM.
`O=C(Cc1ccc(-c2ccc3cccnc3n2)cc1)NCc1ccc(-c2ccc(F)c(C(F)(F)F)c2)cc1`: the IC50 in data set [1] is 75 nM. In data set [2], this compound gave an Intrinsic clearance of 0.28 nmol/min/mg.
Consider `Cc1cc(-c2ccc(CNC(=O)CCCc3ccc4cccnc4n3)cc2)ccc1Cl`, for which the IC50 in data set [1] is 300 nM.
As to `O=C(CCCc1ccc2cccnc2n1)NCc1cc(-c2cccc(Cl)c2)no1`, the IC50 in data set [1] came out at 65 nM. The same compound showed an Intrinsic clearance in data set [2] of 0.09 nmol/min/mg.
On the same counts, the results for `FC(F)(F)c1ccc(-c2nnc(CCCCc3ccc4cccnc4n3)o2)cc1C(F)(F)F` are 170 nM and 0.3 nmol/min/mg.
As to `CCc1cccc(-c2ccc(CNC(=O)CCCc3ccc4cccnc4n3)cc2)c1`, the IC50 in data set [1] came to 65 nM. This compound also gave an Intrinsic clearance in [2] of 0.4 nmol/min/mg.
As for `O=C(NCc1ccc(-c2ccccc2)cc1)c1ccc(-c2ccc3cccnc3n2)cc1`, the inhibition entry in data set [3] is “inactive”. Moreover, in data set [2], the Intrinsic clearance was 0.02 nmol/min/mg.
